Legend:
human PRS protein = molecular target: T1, human PRS protein (Homo sapiens, UniProt P07814); assay: PRS inhibitory activity (ATP/[32P]pyrophosphate exchange enzyme reaction); format: biochemical; conditions: 300 nM test compound; recombinant human PRS (EPRS 998-1512); read-out: inhibitory rate (%) of PRS
T1 construct: to construct His-Avi-hEPRS (998-1512) expression plasmid; His tag (N); Avi tag (N); TEV cleavage site (ENLYFQ/GS, encoded by forward primer hEPRS-TEV-NheF) (N); made in house; host or cells: E. coli BL21(DE3)
T1 sequence (P07814 998-1512): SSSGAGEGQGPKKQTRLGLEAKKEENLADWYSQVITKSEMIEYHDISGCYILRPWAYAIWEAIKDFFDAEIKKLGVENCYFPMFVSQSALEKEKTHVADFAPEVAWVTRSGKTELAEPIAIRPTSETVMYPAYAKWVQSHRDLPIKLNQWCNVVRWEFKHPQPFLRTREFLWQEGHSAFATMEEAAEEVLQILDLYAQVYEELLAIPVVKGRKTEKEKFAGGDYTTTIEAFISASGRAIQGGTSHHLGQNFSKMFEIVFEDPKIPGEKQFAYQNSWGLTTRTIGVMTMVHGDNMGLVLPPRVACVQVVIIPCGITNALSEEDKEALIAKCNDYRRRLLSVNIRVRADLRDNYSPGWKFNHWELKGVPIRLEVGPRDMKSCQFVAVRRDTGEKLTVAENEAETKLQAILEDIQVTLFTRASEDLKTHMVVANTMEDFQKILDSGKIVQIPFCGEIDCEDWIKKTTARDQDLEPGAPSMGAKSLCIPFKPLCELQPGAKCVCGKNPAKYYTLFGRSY
How it was run: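 His-Avi-tagged human EPRS catalytic domain (998-1512), E. coli-expressed, was preincubated 60 min with compound (enzyme added as 40 nM solution) in Tris pH 7.5, KCl, DTT, Tween 20 and MgCl2. The substrate solution contained 300 μM ATP, 160 μM L-proline, and 400 μM pyrophosphate with [32P]pyrophosphate; reaction ran 30 min at room temperature. Charcoal-captured label was counted, with enzyme-free wells taken as 100% inhibition.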

[1] = system: human ovarian cancer cell A2780; assay: proliferation inhibitory activity against A2780 cells (CellTiter-Glo); format: cell-based; conditions: A2780, 72 h, 1 μM test compound, 3 days of culture, read-out: proliferation inhibitory rate (%) of A2780 cells
Protocol: The proliferation inhibitory activity of the compound of the present invention against human ovarian cancer cell A2780 was evaluated by the following method.
Human ovarian cancer cells A2780 were seeded in a 384 well culture plate at 1000 cells in 30 μL of medium per well by using RPMI-1640 medium (Wako Pure Chemical Industries, Ltd.) containing 10% fetal bovine serum and penicillin/streptomycin. The next day, 10 μL of RPMI-1640 medium containing the test compound was added to the cells. After 3 days of culture, 20 μL of CellTiter-Glo Luminescent Cell Viability Assay solution (Promega, Fitchburg, Wis., US) was added. The luminescence signal was measured using EnVision (PerkinElmer, Waltham, Mass., US) and the inhibitory rate (%) of the test compound was calculated with a well free of seeding of cell as 100% inhibition.

inhibition at 0.3 µM (human PRS protein) [%]	Compound	inhibition at 1 µM [1] [%]
99	COCCn1cc(-c2cccc(CC(=O)Nc3cc(N4CC[C@@](C#N)(C5CC5)C4=O)ccn3)c2)cn1 [Example 70, N-(4-((3S)-3-cyano-3-cyclopropyl-2-oxopyrrolidin-1-yl)pyridin-2-yl)-2-(3-(1-(2-methoxyethyl)-1H-pyrazol-4-yl)phenyl)acetamide]	58
100	N#C[C@@]1(C2CC2)CCN(c2ccnc(NC(=O)Cc3cccc(-c4cnn(CC5CC5(F)F)c4)c3)c2)C1=O (stereo partly drawn) [Example 78, N-(4-((3S)-3-cyano-3-cyclopropyl-2-oxopyrrolidin-1-yl)pyridin-2-yl)-2-(3-(1-((2,2-difluorocyclopropyl)-methyl)-1H-pyrazol-4-yl)phenyl)acetamide]	80
100	N#C[C@@]1(C2CC2)CCN(c2ccnc(NC(=O)Cc3cccc(-c4cnn(Cc5ccccc5)c4)c3)c2)C1=O [Example 79, 2-(3-(1-benzyl-1H-pyrazol-4-yl)phenyl)-N-(4-((3S)-3-cyano-3-cyclopropyl-2-oxopyrrolidin-1-yl)pyridin-2-yl)acetamide]	65
99	N#C[C@@]1(C2CC2)CCN(c2ccnc(NC(=O)Cc3cccc(-c4cnn(CC5CCCCO5)c4)c3)c2)C1=O (stereo partly drawn) [Example 83, N-(4-((3S)-3-cyano-3-cyclopropyl-2-oxopyrrolidin-1-yl)pyridin-2-yl)-2-(3-(1-(tetrahydro-2H-pyran-2-ylmethyl)-1H-pyrazol-4-yl)phenyl)acetamide]	58
100	N#C[C@@]1(C2CC2)CCN(c2ccnc(NC(=O)Cc3cccc(-c4cnn(CC5CC(F)(F)C5)c4)c3)c2)C1=O [Example 87, N-(4-((3S)-3-cyano-3-cyclopropyl-2-oxopyrrolidin-1-yl)pyridin-2-yl)-2-(3-(1-((3,3-difluorocyclobutyl)-methyl)-1H-pyrazol-4-yl)phenyl)acetamide]	74
98	N#C[C@@]1(C2CC2)CCN(c2ccnc(NC(=O)Cc3cccc(-c4cnn(CCCC(F)(F)F)c4)c3)c2)C1=O [Example 90, N-(4-((3S)-3-cyano-3-cyclopropyl-2-oxopyrrolidin-1-yl)pyridin-2-yl)-2-(3-(1-(4,4,4-trifluorobutyl)-1H-pyrazol-4-yl)phenyl)acetamide]	61
100	CC(C)n1cc(-c2cccc(CC(=O)Nc3cc(N4CC[C@@](C#N)(C5CC5)C4=O)ccn3)c2)cn1 [Example 93, N-(4-((3S)-3-cyano-3-cyclopropyl-2-oxopyrrolidin-1-yl)pyridin-2-yl)-2-(3-(1-isopropyl-1H-pyrazol-4-yl)phenyl)acetamide]	76
100	N#C[C@@]1(C2CC2)CCN(c2ccnc(NC(=O)Cc3cccc(-c4cnn(C5CCOC5)c4)c3)c2)C1=O (stereo partly drawn) [Example 94, N-(4-((3S)-3-cyano-3-cyclopropyl-2-oxopyrrolidin-1-yl)pyridin-2-yl)-2-(3-(1-(tetrahydrofuran-3-yl)-1H-pyrazol-4-yl)phenyl)acetamide]	74
99	N#C[C@@]1(C2CC2)CCN(c2ccnc(NC(=O)Cc3cccc(-c4cnn(CC(F)(F)C(F)F)c4)c3)c2)C1=O [Example 95, N-(4-((3S)-3-cyano-3-cyclopropyl-2-oxopyrrolidin-1-yl)pyridin-2-yl)-2-(3-(1-(2,2,3,3-tetrafluoropropyl)-1H-pyrazol-4-yl)phenyl)acetamide]	70
100	Cn1cc(-c2cc(F)cc(CC(=O)Nc3cc(N4CC[C@@](C#N)(C5CC5)C4=O)cc(Br)n3)c2)cn1 [Example 97, N-(6-bromo-4-((3S)-3-cyano-3-cyclopropyl-2-oxopyrrolidin-1-yl)pyridin-2-yl)-2-(3-fluoro-5-(1-methyl-1H-pyrazol-4-yl)phenyl)acetamide]	97
98	Cc1cc(N2CC[C@@](C#N)(C3CC3)C2=O)cc(NC(=O)Cc2cccc(-c3cnn(C)c3C)c2)n1 [Example 98, N-(4-((3S)-3-cyano-3-cyclopropyl-2-oxopyrrolidin-1-yl)-6-methylpyridin-2-yl)-2-(3-(1,5-dimethyl-1H-pyrazol-4-yl)phenyl)acetamide]	69

More lines, now with the values behind:

Compound	inhibition at 0.3 µM (human PRS protein) [%]	inhibition at 1 µM [1] [%]
N#C[C@@]1(C2CC2)CCN(c2ccnc(NC(=O)Cc3cccc(-c4cnn(CCO)c4)c3)c2)C1=O [Example 67, N-(4-((3S)-3-cyano-3-cyclopropyl-2-oxopyrrolidin-1-yl)pyridin-2-yl)-2-(3-(1-(2-hydroxyethyl)-1H-pyrazol-4-yl)phenyl)acetamide]	100	77
CC(C)Cn1cc(-c2cccc(CC(=O)Nc3cc(N4CC[C@@](C#N)(C5CC5)C4=O)ccn3)c2)cn1 [Example 68, N-(4-((3S)-3-cyano-3-cyclopropyl-2-oxopyrrolidin-1-yl)pyridin-2-yl)-2-(3-(1-isobutyl-1H-pyrazol-4-yl)phenyl)acetamide]	98	51
N#CCCCn1cc(-c2cccc(CC(=O)Nc3cc(N4CC[C@@](C#N)(C5CC5)C4=O)ccn3)c2)cn1 [Example 71, N-(4-((3S)-3-cyano-3-cyclopropyl-2-oxopyrrolidin-1-yl)pyridin-2-yl)-2-(3-(1-(3-cyanopropyl)-1H-pyrazol-4-yl)phenyl)acetamide]	99	69
N#C[C@@]1(C2CC2)CCN(c2ccnc(NC(=O)Cc3cccc(-c4cnn(CC5CCC5)c4)c3)c2)C1=O [Example 72, N-(4-((3S)-3-cyano-3-cyclopropyl-2-oxopyrrolidin-1-yl)pyridin-2-yl)-2-(3-(1-(cyclobutylmethyl)-1H-pyrazol-4-yl)phenyl)acetamide]	98	65
COCCCn1cc(-c2cccc(CC(=O)Nc3cc(N4CC[C@@](C#N)(C5CC5)C4=O)ccn3)c2)cn1 [Example 74, N-(4-((3S)-3-cyano-3-cyclopropyl-2-oxopyrrolidin-1-yl)pyridin-2-yl)-2-(3-(1-(3-methoxypropyl)-1H-pyrazol-4-yl)phenyl)acetamide]	98	62
CC1(Cn2cc(-c3cccc(CC(=O)Nc4cc(N5CC[C@@](C#N)(C6CC6)C5=O)ccn4)c3)cn2)COC1 [Example 77, N-(4-((3S)-3-cyano-3-cyclopropyl-2-oxopyrrolidin-1-yl)pyridin-2-yl)-2-(3-(1-((3-methyloxetan-3-yl)methyl)-1H-pyrazol-4-yl)phenyl)acetamide]	98	63
N#C[C@@]1(C2CC2)CCN(c2ccnc(NC(=O)Cc3cccc(-c4cnn(CC5CCOCC5)c4)c3)c2)C1=O [Example 84, N-(4-((3S)-3-cyano-3-cyclopropyl-2-oxopyrrolidin-1-yl)pyridin-2-yl)-2-(3-(1-(tetrahydro-2H-pyran-4-ylmethyl)-1H-pyrazol-4-yl)phenyl)acetamide]	97	55
N#C[C@@]1(C2CC2)CCN(c2ccnc(NC(=O)Cc3cccc(-c4cnn(CC5COCCO5)c4)c3)c2)C1=O (stereo partly drawn) [Example 85, N-(4-((3S)-3-cyano-3-cyclopropyl-2-oxopyrrolidin-1-yl)pyridin-2-yl)-2-(3-(1-(1,4-dioxan-2-ylmethyl)-1H-pyrazol-4-yl)phenyl)acetamide]	99	54
